Assay results reported in paper PMC8393474, “The Interaction of Hemin, a Porphyrin Derivative, with the Purified Rat Brain 2-Oxoglutarate Carrier” (Biomolecules, 2021).

Target: T1, 2-oxoglutarate carrier (OGC) (Rattus norvegicus, UniProt P97700)
T1 construct: gene Slc25a11; native carrier purified from rat brain mitochondria, reconstituted into proteoliposomes
T1 sequence (P97700 2-314): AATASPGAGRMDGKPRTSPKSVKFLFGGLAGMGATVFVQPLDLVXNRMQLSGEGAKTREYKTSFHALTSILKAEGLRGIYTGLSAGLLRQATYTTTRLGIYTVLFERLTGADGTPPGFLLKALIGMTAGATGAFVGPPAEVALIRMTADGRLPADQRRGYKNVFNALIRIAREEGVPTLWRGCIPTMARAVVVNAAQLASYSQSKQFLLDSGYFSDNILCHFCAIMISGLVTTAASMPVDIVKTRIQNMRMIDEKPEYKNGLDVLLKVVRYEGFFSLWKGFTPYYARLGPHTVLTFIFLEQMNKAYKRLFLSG
Experiment: inhibition of […] 2-oxoglutarate or […] malate uptake in proteoliposomes reconstituted with purified OGC; Lineweaver-Burk and Dixon plots
Assay type: biochemical

Compound `C=CC1=C(C)C2=Cc3c(C=C)c(C)c4[n]3[Fe]([Cl])[n]3c(c(C)c(CCC(=O)O)c3=CC3=NC(=C4)C(C)=C3CCC(=O)O)=CC1=N2` [hemin] has an IC50 of 1.58 ± 0.22 µM.
